# Measured values published in PubChem BioAssay (NCI).
# Values joined by “and” are separate entries in the source; they are usually repeats but may differ in a detail not shown here. Identical values can stand only once.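 In this assay, cells in 96-well plates receive the compound at five concentrations for 48 hours. Endpoints are linearly interpolated between the surrounding concentrations. GI50 marks 50% less growth. TGI marks complete inhibition of growth.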 *1 amine or outer side, *2 acyl side, *3 side chain or, on linkers, in order; H or OH if unused. Where a SMILES comes first, the peptide text is derived from it. Bridges are numbered along the chain shown (N, C = ends). [ ]: non-standard residue; d: D form. ξ: configuration not given here. X4 = CCC(C)C(N[*:1])C(O)CC(=O)O[C@H](C(=O)C(C)C(=O)[*:2])C(C)C; NMeY = CN[C@@H](Cc1ccc(O)cc1)C(=O)O; X9 = O=C([C@@H]1CC(O)CN1[*:1])[*:2]; ξNMeL = CNC(CC(C)C)C(=O)O; ξT = CC(O)C(N)C(=O)O
# How the values were obtained:
# Experiment in all cases: NCI tumour cell line growth inhibition, 48 h
# [1] = tested on: 786-0 renal
# [2] = tested on: A498 renal
# [3] = tested on: A549 NSCLC
# [4] = tested on: ACHN renal
# [5] = tested on: BT-549 breast
# [6] = tested on: CAKI-1 renal
# [7] = tested on: CCRF-CEM leukemia
# [8] = tested on: COLO 205 colon
# [9] = tested on: DU-145 prostate
# [10] = tested on: EKVX NSCLC
# [11] = tested on: HCC-2998 colon
# [12] = tested on: HCT-116 colon
# [13] = tested on: HCT-15 colon
# [14] = tested on: HL-60(TB) leukemia
# [15] = tested on: HOP-62 NSCLC
# [16] = tested on: HOP-92 NSCLC
# [17] = tested on: HS 578T breast
# [18] = tested on: HT29 colon
# [19] = tested on: IGROV1 ovarian
# [20] = tested on: K-562 leukemia
# [21] = tested on: KM12 colon
# [22] = tested on: LOX IMVI melanoma
# [23] = tested on: M14 melanoma
# [24] = tested on: MALME-3M melanoma
# [25] = tested on: MCF7 breast
# [26] = tested on: MDA-MB-231 breast
# [27] = tested on: MDA-MB-435
# [28] = tested on: MDA-N
# [29] = tested on: MOLT-4 leukemia
# [30] = tested on: NCI-H226 lung
# [31] = tested on: NCI-H23 lung
# [32] = tested on: NCI-H522 lung
# [33] = tested on: NCI/ADR-RES ovarian
# [34] = tested on: OVCAR-3 ovarian
# [35] = tested on: OVCAR-4 ovarian
# [36] = tested on: OVCAR-5 ovarian
# [37] = tested on: OVCAR-8 ovarian
# [38] = tested on: PC-3 prostate
# [39] = tested on: RPMI-8226 leukemia
# [40] = tested on: RXF 393 renal
# [41] = tested on: SF-268 CNS
# [42] = tested on: SF-295 CNS
# [43] = tested on: SF-539 CNS
# [44] = tested on: SK-MEL-2 melanoma
# [45] = tested on: SK-MEL-28 melanoma
# [46] = tested on: SK-MEL-5 melanoma
# [47] = tested on: SK-OV-3 ovarian
# [48] = tested on: SN12C renal
# [49] = tested on: SNB-19 CNS
# [50] = tested on: SNB-75 CNS
# [51] = tested on: SR leukemia
# [52] = tested on: SW-620 colon
# [53] = tested on: T-47D breast
# [54] = tested on: TK-10 renal
# [55] = tested on: U251 CNS
# [56] = tested on: UACC-257 melanoma
# [57] = tested on: UACC-62 melanoma
# [58] = tested on: UO-31 renal
# [59] = tested on: NCI-H460 lung
smiles,measurement,setting,value
CCCCCCN(C(=O)Oc1ccccc1)C(C#N)c1ccccc1 (stereo not given),TGI,[1],> 100000 nM
same,TGI,[2],> 100000 nM
same,TGI,[3],> 100000 nM
same,TGI,[4],> 100000 nM
same,TGI,[5],> 100000 nM
same,TGI,[6],> 100 µM
same,TGI,[7],> 100 µM
same,TGI,[8],> 100000 nM
same,TGI,[9],> 100000 nM
same,TGI,[10],> 100 µM
same,TGI,[11],> 100000 nM
same,TGI,[12],> 100 µM
same,TGI,[13],> 100 µM
same,TGI,[14],> 100 µM
same,TGI,[15],> 100000 nM
same,TGI,[16],> 100000 nM
same,TGI,[17],> 100000 nM
same,TGI,[18],> 100000 nM
same,TGI,[19],> 100000 nM
same,TGI,[20],> 100000 nM
same,TGI,[21],> 100 µM
same,TGI,[22],> 100000 nM
same,TGI,[23],> 100000 nM
same,TGI,[24],> 100000 nM
same,TGI,[25],> 100 µM
same,TGI,[26],> 100 µM
same,TGI,[27],> 100000 nM
same,TGI,[28],> 100 µM
same,TGI,[29],> 100000 nM
same,TGI,[30],> 100000 nM
same,TGI,[31],> 100 µM
same,TGI,[32],> 100000 nM
same,TGI,[33],> 100 µM
same,TGI,[34],> 100000 nM
same,TGI,[35],> 100000 nM
same,TGI,[36],> 100000 nM
same,TGI,[37],> 100000 nM
same,TGI,[38],> 100000 nM
same,TGI,[39],> 100 µM
same,TGI,[40],> 100000 nM
same,TGI,[41],> 100000 nM
same,TGI,[42],> 100000 nM
same,TGI,[43],> 100000 nM
same,TGI,[44],> 100000 nM
same,TGI,[45],> 100000 nM
same,TGI,[46],> 100000 nM
same,TGI,[47],> 100000 nM
same,TGI,[48],> 100000 nM
same,TGI,[49],> 100000 nM
same,TGI,[50],> 100000 nM
same,TGI,[51],> 100 µM
same,TGI,[52],> 100000 nM
same,TGI,[53],> 100000 nM
same,TGI,[54],> 100 µM
same,TGI,[55],> 100000 nM
same,TGI,[56],> 100000 nM
same,TGI,[57],> 100000 nM
same,TGI,[58],> 100 µM
CCC(C)C1NC(=O)C(NC(=O)C(CC(C)C)N(C)C(=O)[C@@H]2CC(O)CN2)C(C)OC(=O)[C@H](Cc2ccc(OC)cc2)N(C)C(=O)[C@@H]2CCCN2C(=O)[C@H](CC(C)C)NC(=O)C(C)C(=O)[C@H](C(C)C)OC(=O)CC1O (stereo not given in full) (H-[X9][ξNMeL][ξT][X4]LP[NMeY](Me); ester 3-C),GI50,[1],16.2 nM
same,TGI,[1],149 nM and 1250 nM
same,GI50,[2],283 nM
same,TGI,[2],628 nM and 2450 nM
same,TGI,[3],2020 nM and 1000 nM
same,GI50,[4],56.1 nM
same,TGI,[4],1010 nM and 1900 nM
same,TGI,[5],57.5 nM and 86.6 nM
same,GI50,[6],151 nM
same,TGI,[6],2.65 µM
same,TGI,[8],15.6 nM
same,GI50,[9],14.9 nM
same,TGI,[9],398 nM and 550 nM
same,TGI,[10],0.266 µM
same,TGI,[11],101 nM and 133 nM
same,GI50,[13],147 nM
same,TGI,[13],8.57 µM
same,GI50,[14],35 nM
same,TGI,[15],154 nM
same,TGI,[16],242 nM and 65.8 nM
same,TGI,[17],55.5 nM and 23.8 nM
same,TGI,[18],1180 nM and 159 nM
same,TGI,[19],107 nM and 141 nM
same,TGI,[20],114 nM and 131 nM
same,TGI,[21],0.105 µM
same,TGI,[22],29.4 nM and 101 nM
same,TGI,[23],110 nM and 126 nM
same,TGI,[24],98.9 nM and 139 nM
same,GI50,[26],36.9 nM
same,TGI,[27],55.5 nM and 131 nM
same,TGI,[28],0.106 µM
same,TGI,[29],42.6 nM and 38.7 nM
same,GI50,[30],30.2 nM
same,TGI,[30],80.4 nM and 355 nM
same,TGI,[59],134 nM and 1100 nM
same,TGI,[32],51.9 nM and 63.8 nM
same,GI50,[33],4.46 µM
same,TGI,[33],> 100 µM
same,GI50,[34],16.6 nM
same,TGI,[34],110 nM and 295 nM
same,TGI,[35],91 nM and 704 nM
same,GI50,[36],365 nM
same,TGI,[36],559 nM and 1490 nM
same,GI50,[37],23.8 nM
same,TGI,[37],759 nM and 1060 nM
same,TGI,[38],130 nM and 131 nM
same,GI50,[39],10.3 nM
same,TGI,[40],96.5 nM and 64.8 nM
same,TGI,[41],172 nM and 252 nM
same,GI50,[42],16.6 nM
same,TGI,[42],286 nM and 304 nM
same,TGI,[43],15.2 nM and 39.5 nM
same,TGI,[44],49.6 nM and 75.8 nM
same,TGI,[45],19.4 nM and 106 nM
same,TGI,[46],101 nM and 14.7 nM
same,TGI,[47],349 nM and 46.4 nM
same,GI50,[48],10.9 nM
same,TGI,[48],75.9 nM and 682 nM
same,TGI,[49],450 nM and 148 nM
same,TGI,[50],119 nM and 166 nM
same,TGI,[51],> 100 µM
same,TGI,[52],287 nM and 294 nM
same,TGI,[53],65.7 nM and 99.4 nM
same,GI50,[54],87.3 nM
same,TGI,[54],1.25 µM and 7.31 µM
same,TGI,[55],335 nM and 1010 nM
same,TGI,[56],185 nM and 608 nM
same,TGI,[57],23.1 nM and 11.7 nM
same,GI50,[58],711 nM
same,TGI,[58],0.954 µM and 7.18 µM
Fc1ccc(C(OCCN2CCC3CCC(C2)N3CCCc2ccccc2)c2ccc(F)cc2)cc1 (stereo not given),TGI,[1],5570 nM
same,TGI,[2],11800 nM
same,TGI,[3],19400 nM
same,TGI,[4],18200 nM
same,TGI,[5],21100 nM
same,TGI,[6],18.3 µM
same,TGI,[7],11.3 µM
same,TGI,[8],2670 nM
same,TGI,[9],22800 nM
same,TGI,[10],15.2 µM
same,TGI,[11],4050 nM
same,TGI,[12],10.6 µM
same,TGI,[13],14.5 µM
same,TGI,[14],5.21 µM
same,TGI,[15],23300 nM
same,TGI,[16],18900 nM
same,TGI,[17],19700 nM
same,TGI,[18],13700 nM
same,TGI,[19],17700 nM
same,TGI,[20],5800 nM
same,TGI,[21],11.3 µM
same,TGI,[22],13800 nM
same,TGI,[23],4760 nM
same,TGI,[24],5460 nM
same,TGI,[25],13 µM
same,TGI,[26],13.6 µM
same,TGI,[27],7460 nM
same,TGI,[28],11.3 µM
same,TGI,[29],7860 nM
same,TGI,[30],15100 nM
same,TGI,[31],15 µM
same,TGI,[59],7510 nM
same,TGI,[32],12100 nM
same,TGI,[33],13.7 µM
same,TGI,[34],14800 nM
same,TGI,[35],22300 nM
same,TGI,[36],20300 nM
same,TGI,[37],4930 nM
same,TGI,[38],11400 nM
same,TGI,[39],5.11 µM
same,TGI,[41],19800 nM
same,TGI,[42],8450 nM
same,TGI,[43],2820 nM
same,TGI,[44],14000 nM
same,TGI,[45],6530 nM
same,TGI,[46],3220 nM
same,TGI,[47],24800 nM
same,TGI,[48],12700 nM
same,TGI,[49],22300 nM
same,TGI,[50],10300 nM
same,TGI,[52],19900 nM
same,TGI,[53],4790 nM
same,TGI,[54],15.7 µM
same,TGI,[55],15100 nM
same,TGI,[56],8930 nM
same,TGI,[57],18200 nM
same,TGI,[58],16.3 µM
